Laboratory results published in patent US10947242B2, “[1,2,4]triazolo[1,5and#8208;A]pyrimidine compounds as PDE2 inhibitors” (Janssen Pharmaceutica NV, priority 2016, dated 2021).
Read-outs that look alike come from different tables or passages of the source.

Assays:
[1] = target: T1, Human recombinant PDE2A (hPDE2A) (Homo sapiens, UniProt O00408); assay: In vitro assay PDE2A (SPA, 3H-cGMP hydrolysis); format: biochemical; conditions: for Emax: read-out: hPDE2A Emax
T1 construct: His tag (inferred from metal chelate purification); made in house; host or cells: Sf9 insect cells (baculovirus)
T1 sequence (O00408 whole entry): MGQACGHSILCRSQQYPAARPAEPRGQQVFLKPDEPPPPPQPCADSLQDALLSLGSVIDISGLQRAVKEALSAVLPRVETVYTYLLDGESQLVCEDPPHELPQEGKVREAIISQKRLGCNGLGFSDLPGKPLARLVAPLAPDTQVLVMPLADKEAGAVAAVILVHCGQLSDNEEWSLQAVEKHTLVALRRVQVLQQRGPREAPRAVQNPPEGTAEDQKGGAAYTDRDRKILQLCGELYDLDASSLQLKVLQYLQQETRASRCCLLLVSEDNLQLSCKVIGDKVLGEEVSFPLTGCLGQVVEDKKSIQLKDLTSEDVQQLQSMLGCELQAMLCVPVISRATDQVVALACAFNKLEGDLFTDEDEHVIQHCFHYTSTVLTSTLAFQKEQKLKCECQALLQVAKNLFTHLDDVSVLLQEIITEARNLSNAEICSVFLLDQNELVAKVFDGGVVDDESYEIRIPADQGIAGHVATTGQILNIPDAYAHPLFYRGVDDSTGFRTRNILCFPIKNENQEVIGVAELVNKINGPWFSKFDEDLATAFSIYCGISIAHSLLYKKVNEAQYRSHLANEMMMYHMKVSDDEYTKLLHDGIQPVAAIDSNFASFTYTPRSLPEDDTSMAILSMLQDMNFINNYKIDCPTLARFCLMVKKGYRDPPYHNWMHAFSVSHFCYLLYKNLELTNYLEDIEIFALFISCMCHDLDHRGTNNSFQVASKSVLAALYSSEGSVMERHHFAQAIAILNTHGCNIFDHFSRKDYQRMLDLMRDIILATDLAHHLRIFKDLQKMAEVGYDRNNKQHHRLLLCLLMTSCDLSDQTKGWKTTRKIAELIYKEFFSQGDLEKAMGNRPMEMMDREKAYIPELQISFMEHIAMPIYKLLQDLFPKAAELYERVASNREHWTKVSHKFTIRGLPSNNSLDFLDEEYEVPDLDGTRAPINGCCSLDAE

[2] = target: T2, Human recombinant PDE3A (hPDE3A) (Homo sapiens, UniProt Q14432); assay: In vitro assay PDE3A (SPA, 3H-cAMP hydrolysis); format: biochemical; conditions: for IC50: hPDE3B pIC50, read-out: pIC50 (converted); for Emax: read-out: hPDE3B Emax, read-out: Emax;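 as to all read-outs here: the method names PDE3A and the table heading PDE3B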
T2 construct: purchased Scottish Biomedical; host or cells: Sf9 insect cells
T2 sequence (Q14432 whole entry): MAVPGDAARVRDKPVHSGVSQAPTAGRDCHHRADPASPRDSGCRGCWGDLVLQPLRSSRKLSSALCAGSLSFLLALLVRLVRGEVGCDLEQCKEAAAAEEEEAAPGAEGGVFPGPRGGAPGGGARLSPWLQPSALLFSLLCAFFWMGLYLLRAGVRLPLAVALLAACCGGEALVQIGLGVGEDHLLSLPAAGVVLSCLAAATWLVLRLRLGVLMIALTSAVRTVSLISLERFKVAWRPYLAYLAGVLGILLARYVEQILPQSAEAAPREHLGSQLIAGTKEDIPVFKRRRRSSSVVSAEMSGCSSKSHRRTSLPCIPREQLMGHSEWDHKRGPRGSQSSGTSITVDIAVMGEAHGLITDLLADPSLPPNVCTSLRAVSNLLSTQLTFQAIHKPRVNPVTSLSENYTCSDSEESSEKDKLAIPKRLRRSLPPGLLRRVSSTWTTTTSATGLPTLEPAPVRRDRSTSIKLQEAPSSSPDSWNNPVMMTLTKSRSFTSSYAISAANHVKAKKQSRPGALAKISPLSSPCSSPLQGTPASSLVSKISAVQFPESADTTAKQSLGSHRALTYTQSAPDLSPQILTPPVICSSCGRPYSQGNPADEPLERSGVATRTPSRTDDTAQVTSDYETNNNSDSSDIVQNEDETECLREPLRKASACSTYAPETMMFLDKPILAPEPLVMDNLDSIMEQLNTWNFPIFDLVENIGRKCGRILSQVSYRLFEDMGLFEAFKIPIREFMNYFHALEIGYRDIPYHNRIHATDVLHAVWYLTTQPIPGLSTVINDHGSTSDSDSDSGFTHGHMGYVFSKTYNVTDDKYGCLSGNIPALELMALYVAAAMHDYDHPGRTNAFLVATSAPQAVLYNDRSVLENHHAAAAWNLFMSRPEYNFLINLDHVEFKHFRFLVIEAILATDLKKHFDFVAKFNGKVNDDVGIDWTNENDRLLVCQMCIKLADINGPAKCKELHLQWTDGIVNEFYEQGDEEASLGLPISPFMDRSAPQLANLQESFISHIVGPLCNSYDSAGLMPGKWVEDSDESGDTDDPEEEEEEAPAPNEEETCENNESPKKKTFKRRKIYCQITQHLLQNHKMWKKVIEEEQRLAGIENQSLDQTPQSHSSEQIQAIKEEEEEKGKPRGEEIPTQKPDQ
Method in brief: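 Radiometric SPA measuring [3H]-cAMP hydrolysis (0.4 μM cAMP, 2.4 μCi/ml) over 60 min at room temperature, in Tris pH 7.8 buffer with MgCl2 and EGTA, 1% DMSO. Enzyme: recombinant human brain PDE3A expressed in Sf9 cells, used as partially purified lysate. Counts compared with enzyme-free blanks and vehicle controls.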

[3] = target: T3, Human recombinant PDE10A (hPDE10A) (Homo sapiens, UniProt Q9Y233); assay: In vitro assay PDE10A, human clone (SPA, 3H-cAMP hydrolysis); format: biochemical
T3 construct: His tag (inferred from metal chelate purification); made in house; host or cells: Sf9 insect cells (baculovirus)
T3 sequence (Q9Y233 267-1055): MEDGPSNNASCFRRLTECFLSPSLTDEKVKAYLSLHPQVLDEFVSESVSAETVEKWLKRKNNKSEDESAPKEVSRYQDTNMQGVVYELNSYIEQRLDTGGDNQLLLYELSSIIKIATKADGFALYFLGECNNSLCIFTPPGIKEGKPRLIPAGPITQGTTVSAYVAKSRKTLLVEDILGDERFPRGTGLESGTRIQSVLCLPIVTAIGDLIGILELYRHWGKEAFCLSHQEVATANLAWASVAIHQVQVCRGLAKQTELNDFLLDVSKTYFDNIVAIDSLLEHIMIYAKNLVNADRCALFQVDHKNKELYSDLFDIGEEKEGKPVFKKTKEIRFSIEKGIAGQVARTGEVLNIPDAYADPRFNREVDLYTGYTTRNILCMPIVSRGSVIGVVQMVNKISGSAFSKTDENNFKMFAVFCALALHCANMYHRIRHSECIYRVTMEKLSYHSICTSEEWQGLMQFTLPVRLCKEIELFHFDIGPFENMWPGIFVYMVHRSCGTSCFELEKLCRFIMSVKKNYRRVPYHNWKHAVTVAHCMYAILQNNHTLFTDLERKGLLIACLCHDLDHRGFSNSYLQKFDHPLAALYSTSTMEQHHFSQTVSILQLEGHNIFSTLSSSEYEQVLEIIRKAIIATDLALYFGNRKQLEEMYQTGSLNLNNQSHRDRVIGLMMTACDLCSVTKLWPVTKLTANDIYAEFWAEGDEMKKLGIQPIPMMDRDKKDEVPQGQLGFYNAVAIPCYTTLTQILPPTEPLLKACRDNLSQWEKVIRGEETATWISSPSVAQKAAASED
Method in brief: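 Hydrolysis of 3H-cAMP (60 nM cAMP, 0.008 μCi tracer) proceeded for 60 min at room temperature, with the product detected by SPA bead scintillation counting. The enzyme was hPDE10A from baculovirus-infected Sf9 cells in Tris pH 7.8 buffer with MgCl2 and EGTA, and compounds were at 1% DMSO final. Blanks lacked enzyme.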

PDE2A = target: T4, PDE2A (Rattus norvegicus, UniProt Q01062); assay: PDE2 occupancy by test compounds, ex-vivo autoradiography with [3H]B-17a; format: in vivo, Male Wistar rats; conditions: 10 mg/kg, percentage receptor occupancy, ex-vivo autoradiography, striatum
T4 construct: Twenty μm-thick striatal sections were cut; from tissue; host or cells: rat brain, striatal sections
T4 sequence (Q01062 1-928): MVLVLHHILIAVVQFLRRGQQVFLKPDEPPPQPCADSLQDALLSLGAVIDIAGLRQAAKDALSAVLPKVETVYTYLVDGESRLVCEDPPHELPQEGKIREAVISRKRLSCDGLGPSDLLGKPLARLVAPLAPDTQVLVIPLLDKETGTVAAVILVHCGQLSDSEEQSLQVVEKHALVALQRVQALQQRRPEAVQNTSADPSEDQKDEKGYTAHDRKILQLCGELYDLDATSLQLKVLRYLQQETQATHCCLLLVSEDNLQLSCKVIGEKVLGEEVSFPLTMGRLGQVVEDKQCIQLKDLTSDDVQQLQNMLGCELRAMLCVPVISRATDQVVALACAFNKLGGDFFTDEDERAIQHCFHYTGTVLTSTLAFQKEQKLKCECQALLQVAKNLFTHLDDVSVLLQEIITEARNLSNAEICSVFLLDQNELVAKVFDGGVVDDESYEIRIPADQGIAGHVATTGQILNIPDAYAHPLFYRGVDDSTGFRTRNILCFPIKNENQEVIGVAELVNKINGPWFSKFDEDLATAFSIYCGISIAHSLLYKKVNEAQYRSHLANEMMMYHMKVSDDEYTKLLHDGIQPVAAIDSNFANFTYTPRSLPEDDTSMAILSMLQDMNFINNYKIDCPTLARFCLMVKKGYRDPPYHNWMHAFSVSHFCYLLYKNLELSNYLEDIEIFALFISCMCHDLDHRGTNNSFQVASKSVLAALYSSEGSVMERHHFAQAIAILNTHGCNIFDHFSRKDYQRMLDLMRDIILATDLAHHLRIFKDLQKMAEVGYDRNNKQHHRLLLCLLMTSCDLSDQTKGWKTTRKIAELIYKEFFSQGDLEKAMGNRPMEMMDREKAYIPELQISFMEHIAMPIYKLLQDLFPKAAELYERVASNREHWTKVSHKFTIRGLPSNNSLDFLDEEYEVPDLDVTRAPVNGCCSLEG

[4] = read-out: hPDE2A pIC50 (converted)
[5] = human clone by default (no (r) mark), read-out: hPDE10A2 or rPDE10A2 Emax
[6] = human clone by default (no (r) mark), read-out: hPDE10A2 or rPDE10A2 pIC50 (converted)
[7] = human recombinant PDE2A, 10 μM cGMP substrate, read-out: hPDE2A pIC50 (converted)
[8] = human clone (h), default, read-out: hPDE10A2 Emax
[9] = human clone (h), default, read-out: hPDE10A2 pIC50 (converted)

Structure (SMILES)	Emax [1]	IC50 [1, 4]	IC50 [2]	Emax [2]	Emax [3, 5]	IC50 [3, 6]	receptor occupancy at 10 mg/kg (PDE2A; route PO (oral))	IC50 [1, 7]	Emax ([1]; human recombinant PDE2A)	Emax [3, 8]	IC50 [3, 9]	receptor occupancy at 10 mg/kg (PDE2A; po, route PO (oral))	IC50 ([1]; hPDE2A pIC50)	IC50 ([1]; hPDE2A pIC50, human recombinant PDE2A, 10 μM cGMP substrate)	receptor occupancy at 10 mg/kg (PDE2A; sc, route SC (subcutaneous))
Cc1nc2ccc(C(=O)N3[C@H]4CC[C@H](c5cc(C(F)F)nc6ncnn56)[C@@H]3CC4)cc2o1 [Compound 303]	99%	7.08 nM	6610 nM	57%	95%	537 nM	17%	–	–	–	–	–	–	–	–
COc1ncc(C(=O)N2CC[C@@H](C)[C@H](c3cc(C(F)F)nc4ncnn34)C2)cc1C1CC1 [Compound 73]	101%	1.95 nM	2630 nM	83%	–	–	–	1.95 nM	101%	98%	219 nM	0%	–	–	–
Cc1cc(C(=O)N2CC[C@@H](C)[C@H](c3cc(C(F)F)nc4ncnn34)C2)cc(Cl)n1 [Compound 83]	100%	–	7940 nM	58%	–	–	–	–	–	98%	97.7 nM	82%	0.933 nM	0.933 nM	–
C[C@@H]1CCN(C(=O)c2ccc3scnc3c2)C[C@H]1c1cc(C(F)F)nc2ncnn12 [Compound 227]	101%	2.19 nM	380 nM	95%	98%	45.7 nM	–	2.19 nM	101%	98%	45.7 nM	–	–	–	18%
C[C@@H]1CCN(C(=O)c2ccnc(Cl)c2)C[C@H]1c1cc(C(F)F)nc2ncnn12 [Compound 42]	100%	1.15 nM	> 10000 nM	48%	–	–	–	1.15 nM	100%	95%	316 nM	54%	–	–	–
Cc1cc(C(=O)N2CC[C@@H](C)[C@H](c3cc(C(F)F)nc4ncnn34)C2)cc(OC(C)C)n1 [Compound 107]	100%	0.912 nM	4170 nM	61%	–	–	–	0.912 nM	100%	99%	81.3 nM	29%	–	–	–
Cc1cc(C(=O)N2CC[C@@H](C)[C@H](c3cc(C(F)F)nc4ncnn34)C2)c(C(F)(F)F)cn1 [Compound 41]	99%	13.8 nM	> 10000 nM	17%	–	–	–	13.8 nM	99%	72%	4170 nM	8%	–	–	–
COc1ccc(C(=O)N2CC[C@@H](C)[C@H](c3cc(C(F)F)nc4ncnn34)C2)nc1 [Compound 66]	99%	17.4 nM	> 10000 nM	48%	–	–	–	17.4 nM	99%	79%	2290 nM	-14%	–	–	–
C[C@@H]1CCN(C(=O)c2cc(OC(F)F)cc(C3CC3)c2)C[C@H]1c1cc(C(F)F)nc2ncnn12 [Compound 91]	100%	0.372 nM	708 nM	61%	–	–	–	0.372 nM	100%	94%	22.4 nM	-7%	–	–	–
Cc1cc(C(=O)N2CC[C@@H](C)[C@H](c3cc(C)nc4ncnn34)C2)cc(OC(F)F)n1 [Compound 275]	100%	2.82 nM	977 nM	92%	100%	28.8 nM	–	–	–	–	–	23%	–	–	–
